Assay results: patent publication EP4631940A1, “COMPOUND TARGETING PAN-KRAS PROTEIN DEGRADATION AGENT AND USE THEREOF” (Betta Pharmaceuticals Co., Ltd., priority 2022, dated 2024)

Columns and labels:
KRAS G12D [1] = target: T1, KRAS G12D (Homo sapiens, UniProt P01116, G12D); assay: cell-based; conditions: AGS
AGS = assay: Cell proliferation experiment (CellTiter-Glo); assay type: cell-based; conditions: Homo sapiens, AGS, 96 h, read-out: IC50(nM) AGS
SW620 = assay: Cell proliferation experiment (CellTiter-Glo); assay type: cell-based; conditions: Homo sapiens, SW-620, 96 h, read-out: IC50(nM) SW620
KRAS G12D [2] = target: T1, KRAS G12D
in vitro [3] = conditions: mouse, microsomes
in vitro [4] = conditions: dog, microsomes
in vitro [5] = conditions: rat, microsomes
in vitro [6] = conditions: human, microsomes

T1 sequence (P01116 1-188 isoform P01116-2 G12D): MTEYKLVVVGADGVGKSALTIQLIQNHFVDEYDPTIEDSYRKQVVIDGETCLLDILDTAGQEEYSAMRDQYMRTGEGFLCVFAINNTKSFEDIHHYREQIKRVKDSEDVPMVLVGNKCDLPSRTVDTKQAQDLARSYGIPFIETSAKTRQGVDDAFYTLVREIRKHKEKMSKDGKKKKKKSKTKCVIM

SMILES	Dmax (KRAS G12D [1])	IC50 (AGS)	IC50 (SW620)	DC50 (KRAS G12D [2])	microsomal CLint (in vitro [3])	microsomal CLint (in vitro [4])	microsomal CLint (in vitro [5])	microsomal CLint (in vitro [6])
CCc1c(F)ccc2cc(O)cc(-c3ncc4c(N5CCC[C@@](C)(O)C5)nc(OCCN5CCC(COc6ccc(-c7cn([C@H](C(=O)N8C[C@H](O)C[C@H]8C(=O)N[C@@H](C)c8ccc(-c9scnc9C)cc8)C(C)C)nn7)cc6)CC5)nc4c3F)c12 [Compound 67]	78%	40 nM	1720 nM	22 nM				
C=C1CN2[C@H](COc3ccc(-c4cn([C@H](C(=O)N5C[C@H](O)C[C@H]5C(=O)N[C@@H](C)c5ccc(-c6scnc6C)cc5)C(C)C)nn4)cn3)CC[C@@]2(COc2nc(N3CCC[C@@](C)(O)C3)c3cnc(-c4cc(O)cc5ccc(F)c(CC)c45)c(F)c3n2)C1 [Compound 124]	95%	15 nM	135 nM	21 nM	18.6 µL/min/mg	88 µL/min/mg	9.1 µL/min/mg	49.7 µL/min/mg
CCc1c(F)ccc2cc(O)cc(-c3ncc4c(N5CCC[C@@](C)(O)C5)nc(OCC5(CN6CCC(F)(COc7cc([C@H](C(=O)N8C[C@H](O)C[C@H]8C(=O)N[C@@H](C)c8ccc(-c9scnc9C)cc8)C(C)C)on7)CC6)CC5)nc4c3F)c12 [Compound 100]	95%	11 nM	38 nM	9.5 nM	3.2 µL/min/mg	57.5 µL/min/mg	7.9 µL/min/mg	47 µL/min/mg
CCc1c(F)ccc2cc(O)cc(-c3ncc4c(N5CCC[C@@](C)(O)C5)nc(OCC5(CN6CCC7(CC6)CN(c6cc([C@H](C(=O)N8C[C@H](O)C[C@H]8C(=O)N[C@@H](C)c8ccc(-c9scnc9C)cc8)C(C)C)on6)C7)CC5)nc4c3F)c12 [Compound 105]	95%	12 nM		8.9 nM	13.3 µL/min/mg	28.5 µL/min/mg	5.9 µL/min/mg	9.9 µL/min/mg
CCc1c(F)ccc2cc(O)cc(-c3ncc4c(N5CCC[C@@](C)(O)C5)nc(OCC5(CN6CCC(c7ccc(-c8cn([C@H](C(=O)N9C[C@H](O)C[C@H]9C(=O)N[C@@H](C)c9ccc(-c%10scnc%10C)cc9)C(C)(C)C)nn8)cc7)CC6)CC5)nc4c3F)c12 [Compound 119]		37 nM			10.4 µL/min/mg	14.9 µL/min/mg	9.1 µL/min/mg	6.1 µL/min/mg
CCc1c(F)ccc2cc(O)cc(-c3ncc4c(N5CCC[C@@](C)(O)C5)nc(OCC5(CN6CCC(N7CCN(c8cc([C@H](C(=O)N9C[C@H](O)C[C@H]9C(=O)N[C@@H](C)c9ccc(-c%10scnc%10C)cc9)C(C)C)on8)CC7)CC6)CC5)nc4c3F)c12 [Compound 115]	95%	29 nM		21 nM	15.9 µL/min/mg	18.3 µL/min/mg	13.8 µL/min/mg	32.1 µL/min/mg
CCc1c(F)ccc2cc(O)cc(-c3ncc4c(N5CCC[C@@](C)(O)C5)nc(OCC5(CN6CCC(n7cc(-c8cn([C@H](C(=O)N9C[C@H](O)C[C@H]9C(=O)N[C@@H](C)c9ccc(-c%10scnc%10C)cc9)C(C)C)nn8)cn7)CC6)CC5)nc4c3F)c12 [Compound 138]	95%	14 nM	102 nM	13 nM	13.6 µL/min/mg	25.5 µL/min/mg	5.7 µL/min/mg	11.2 µL/min/mg
CCc1c(F)ccc2cc(O)cc(-c3ncc4c(N5CCC[C@@](C)(O)C5)nc(OCC5(CN6CCC(c7ccc(-c8cn([C@H](C(=O)N9C[C@H](O)C[C@H]9C(=O)N[C@@H](C)c9ccc(-c%10scnc%10C)cc9)C(C)C)nn8)cn7)CC6)CC5)nc4c3F)c12 [Compound 203]	95%	11 nM	47 nM	14 nM				
CCc1c(F)ccc2cc(O)cc(-c3ncc4c(N5CCC[C@@](C)(O)C5)nc(OCCN5CCC(COc6cc([C@H](C(=O)N7C[C@H](O)C[C@H]7C(=O)N[C@@H](C)c7ccc(-c8scnc8C)cc7)C(C)C)on6)CC5)nc4c3F)c12 [Compound 80]	95%	63 nM		40 nM				
CCc1c(F)ccc2cc(O)cc(-c3ncc4c(N5CCC[C@@](C)(O)C5)nc(OCC5(CN6CCN(C7CN(c8cc([C@H](C(=O)N9C[C@H](O)C[C@H]9C(=O)N[C@@H](C)c9ccc(-c%10scnc%10C)cc9)C(C)C)on8)C7)CC6)CC5)nc4c3F)c12 [Compound 156]	95%	9.6 nM		9.6 nM				
C=C1CN2[C@H](COC(=O)N3CCC4(CC3)CC(CNC(=O)C[C@H](NC(=O)[C@@H]3C[C@@H](O)CN3C(=O)C(c3cc(C)no3)C(C)C)c3ccc(-c5scnc5C)cc3)C4)CC[C@@]2(COc2nc(N3CCC[C@@](C)(O)C3)c3cnc(-c4cc(O)cc5ccc(F)c(CC)c45)c(F)c3n2)C1 (single isomer, unassigned) [Compound 139]	95%	84 nM	2040 nM	31 nM				
CCc1c(F)ccc2cc(O)cc(-c3ncc4c(N5CCC[C@@](C)(O)C5)nc(OCC5(CN6CCC(CN7CCN(c8cc([C@H](C(=O)N9C[C@H](O)C[C@H]9C(=O)N[C@@H](C)c9ccc(-c%10scnc%10C)cc9)C(C)C)on8)CC7)CC6)CC5)nc4c3F)c12 [Compound 104]	95%	39 nM		27 nM				
CCc1c(F)ccc2cc(O)cc(-c3ncc4c(N5CCC[C@@](C)(O)C5)nc(OCC5(CN6CCN(c7cnc(-c8cn([C@H](C(=O)N9C[C@H](O)C[C@H]9C(=O)N[C@@H](C)c9ccc(-c%10scnc%10C)cc9)C(C)C)nn8)cn7)CC6)CC5)nc4c3F)c12 [Compound 134]	95%	10 nM	58 nM	5.9 nM	6.4 µL/min/mg	5.5 µL/min/mg	3 µL/min/mg	28.4 µL/min/mg
CCc1c(F)ccc2cc(O)cc(-c3ncc4c(N5CCC[C@@](C)(O)C5)nc(OC[C@]56CCCN5[C@@H](COc5cnc(-c7cn([C@H](C(=O)N8C[C@H](O)C[C@H]8C(=O)N[C@@H](C)c8ccc(-c9scnc9C)cc8)C(C)C)nn7)cn5)CC6)nc4c3F)c12 [Compound 159]	95%	6.2 nM		2.3 nM				
CCc1c(F)ccc2cc(O)cc(-c3ncc4c(N5CCC[C@@](C)(O)C5)nc(OCC5(CN6CCN(CC7CCN(c8cc([C@H](C(=O)N9C[C@H](O)C[C@H]9C(=O)N[C@@H](C)c9ccc(-c%10scnc%10C)cc9)C(C)C)on8)CC7)CC6)CC5)nc4c3F)c12 [Compound 111]	95%	20 nM		21 nM	10.6 µL/min/mg	8.4 µL/min/mg	15.7 µL/min/mg	21.7 µL/min/mg
CCc1c(F)ccc2cc(O)cc(-c3ncc4c(N5CCC[C@@](C)(O)C5)nc(OCC5(CN6CCC(N7CCC(c8cn([C@H](C(=O)N9C[C@H](O)C[C@H]9C(=O)N[C@@H](C)c9ccc(-c%10scnc%10C)cc9)C(C)C)nn8)CC7)CC6)CC5)nc4c3F)c12 [Compound 137]	95%	37 nM		37 nM				
CCc1c(F)ccc2cc(O)cc(-c3ncc4c(N5CCC[C@@](C)(O)C5)nc(OCC5(CN6C[C@@H]7CN(c8cc([C@H](C(=O)N9C[C@H](O)C[C@H]9C(=O)N[C@@H](C)c9ccc(-c%10scnc%10C)cc9)C(C)C)on8)C[C@@H]7C6)CC5)nc4c3F)c12 [Compound 113]	95%	8.3 nM	49 nM	9.3 nM				
CCc1c(F)ccc2cc(O)cc(-c3ncc4c(N5CCC[C@@](C)(O)C5)nc(OCC5(CN6CCN(CC78CC(c9cn([C@H](C(=O)N%10C[C@H](O)C[C@H]%10C(=O)N[C@@H](C)c%10ccc(-c%11scnc%11C)cc%10)C(C)C)nn9)(C7)C8)CC6)CC5)nc4c3F)c12 [Compound 148]	95%	15 nM		13 nM				
CCc1c(F)ccc2cc(O)cc(-c3ncc4c(N5CCC[C@@](C)(O)C5)nc(OCC5(CN6CCC(Oc7cc([C@H](C(=O)N8C[C@H](O)C[C@H]8C(=O)N[C@@H](C)c8ccc(-c9scnc9C)cc8)C(C)C)on7)CC6)CC5)nc4c3F)c12 [Compound 114, (2S,4R)-1-((R)-2-(3-((1-((1-(((7-(8-ethyl-7-fluoro-3-hydroxynaphthalen-1-yl)-8-fluoro-4-((R)-3-hydroxy-3-methylpiperidin-1-yl)pyrido[4,3-d]pyrimidin-2-yl)oxy)methyl)cyclopropyl)methyl)piperidin-4-yl)oxy)isoxazol-5-yl)-3-methylbutanoyl)-4-hydroxy-N-((S)-1-(4-(4-methylthiazol-5-yl)phenyl)ethyl)pyrrolidine-2-carboxamide]	95%	13 nM		18 nM	18.9 µL/min/mg	50.5 µL/min/mg	25.2 µL/min/mg	46.5 µL/min/mg
CCc1c(F)ccc2cc(O)cc(-c3ncc4c(N5CCC[C@@](C)(O)C5)nc(OCC5(CN6CC(N7CCN(c8cc([C@H](C(=O)N9C[C@H](O)C[C@H]9C(=O)N[C@@H](C)c9ccc(-c%10scnc%10C)cc9)C(C)C)on8)CC7)C6)CC5)nc4c3F)c12 [Compound 116]	95%	27 nM		30 nM				
